Test results taken from US10206937B2, “Boronic acid derivatives and therapeutic uses thereof” (Qpex Biopharma, Inc., priority 2014, dated 2019).

System: strains of Enterobacteriaceae producing various carbapenemases (class A, D and B; 104 strains)
Experiment: Antibiotics potentiation by Compound 27 (MIC; meropenem, doripenem, ertapenem, cefepime)
Assay type: cell-based
Conditions: + 27 = with Compound 27 at fixed 4 μg/ml

COc1ccc2c(c1C(=O)O)OB(O)C(Sc1nnc(N)s1)C2 (centres unmarked) [E + 27]
MIC (strain CF1012 Citrobacter freundii (KPC-2)): X (MIC of less than 1 μg/mL) | MIC (strain CF1021 Citrobacter freundii (CMY-type; VIM-1)): X (MIC of less than 1 μg/mL) | MIC (strain CF1022 Citrobacter freundii (SHV-12(2be), TEM-OSBL(2b); IMP-8)): X (MIC of less than 1 μg/mL) | MIC (strain CF1023 Citrobacter freundii (SHV-12(2be), TEM-OSBL(2b); CTX-M-3; CMY-34; NDM-1)): X (MIC of less than 1 μg/mL) | MIC (strain CL1080 Enterobacter cloacae (IMP-1)): Y (MIC of 1 μg/mL to 10 μg/mL) | MIC (strain EA1019 Enterobacter aerogenes (SHV-5, VIM-1)): X (MIC of less than 1 μg/mL) | MIC (strain EC1007 Escherichia coli (KPC-3)): X (MIC of less than 1 μg/mL) | MIC (strain EC1061 Escherichia coli (NDM-1, CMY-6)): X (MIC of less than 1 μg/mL) | MIC (strain EC1062 Escherichia coli (OXA-48, CTX-M-15)): X (MIC of less than 1 μg/mL) | MIC (strain EC1064 Escherichia coli (NDM-1, CMY-6, CTX-M-15)): Z (MIC of greater than 10 μg/mL) | MIC (strain EC1065 Escherichia coli (IMP-1)): X (MIC of less than 1 μg/mL) | MIC (strain EC1068 Escherichia coli (VIM-1)): X (MIC of less than 1 μg/mL) | MIC (strain EC1069 Escherichia coli (CTX-M-27; NDM-1)): X (MIC of less than 1 μg/mL) | MIC (strain EC1070 Escherichia coli (TEM-OSBL(2b); CMY-42; NDM-5)): X (MIC of less than 1 μg/mL) | MIC (strain EC1072 Escherichia coli (CTX-M-3; NDM-1)): X (MIC of less than 1 μg/mL) | MIC (strain ECL1004 Enterobacter cloacae (NMC-A)): X (MIC of less than 1 μg/mL) | MIC (strain ECL1026 Enterobacter cloacae (KPC-2, TEM-1)): X (MIC of less than 1 μg/mL) | MIC (strain ECL1036 Enterobacter cloacae (KPC-3, TEM-1)): X (MIC of less than 1 μg/mL) | MIC (strain ECL1045 Enterobacter cloacae (VIM-1)): Y (MIC of 1 μg/mL to 10 μg/mL) | MIC (strain ECL1055 Enterobacter cloacae (KPC-3, TEM)): X (MIC of less than 1 μg/mL) | MIC (strain ECL1057 Enterobacter cloacae (NDM-1, TEM-1, CTX-M-15)): Z (MIC of greater than 10 μg/mL) | MIC (strain ECL1058 Enterobacter cloacae (KPC-3, SHV-11, TEM-1)): Y (MIC of 1 μg/mL to 10 μg/mL) | MIC (strain ECL1059 Enterobacter cloacae (KPC-3, SHV-12, TEM-1)): X (MIC of less than 1 μg/mL) | MIC (strain ECL1061 Enterobacter cloacae (KPC-3, Hyper AmpC expression)): Y (MIC of 1 μg/mL to 10 μg/mL) | MIC (strain ECL1082 Enterobacter cloacae (VIM-1)): X (MIC of less than 1 μg/mL) | MIC (strain ECL1084 Enterobacter cloacae (CTX-M-15; ACT-16; NDM-1)): X (MIC of less than 1 μg/mL) | MIC (strain ECL1085 Enterobacter cloacae (SHV-31(2be), TEM-1(2b); CTX-M-15; NDM-1)): X (MIC of less than 1 μg/mL) | MIC (strain ECL1086 Enterobacter cloacae (VIM-31, OXA-48(c))): Y (MIC of 1 μg/mL to 10 μg/mL) | MIC (strain ECL1087 Enterobacter cloacae (VIM-1)): X (MIC of less than 1 μg/mL) | MIC (strain ECL1088 Enterobacter cloacae (TEM-1(2b); CTX-M-14; ACT-type; VIM-1)): X (MIC of less than 1 μg/mL) | MIC (strain ECL1089 Enterobacter cloacae (ACT-type; IMP-1)): Z (MIC of greater than 10 μg/mL) | MIC (strain ECL1090 Enterobacter cloacae (TEM-1(2b); CTX-M-22; ACT-type; IMP-8)): X (MIC of less than 1 μg/mL) | MIC (strain ECL1091 Enterobacter cloacae (VIM-1)): X (MIC of less than 1 μg/mL) | MIC (strain ECL1092 Enterobacter cloacae (TEM-OSBL(2b); ACT-32; VIM-1)): X (MIC of less than 1 μg/mL) | MIC (strain ECL1093 Enterobacter cloacae (TEM-OSBL(2b); ACT-32; VIM-1)): X (MIC of less than 1 μg/mL) | MIC (strain ECL1094 Enterobacter cloacae (VIM-1)): Y (MIC of 1 μg/mL to 10 μg/mL) | MIC (strain ECL1096 Enterobacter cloacae (CMY-4, VIM-4, OXA-48(c))): X (MIC of less than 1 μg/mL) | MIC (strain ECL1097 Enterobacter cloacae (SHV-31(2be), TEM-OSBL(2b); CTX-M-15; ACT-31; NDM-1)): X (MIC of less than 1 μg/mL) | MIC (strain ECL1098 Enterobacter cloacae (TEM-OSBL(2b); DHA-1; ACT-16; NDM-1)): X (MIC of less than 1 μg/mL) | MIC (strain KP1001 Klebsiella pneumoniae (KPC TEM SHV)): Z (MIC of greater than 10 μg/mL) | MIC (strain KP1002 Klebsiella pneumoniae (KPC TEM SHV)): X (MIC of less than 1 μg/mL) | MIC (strain KP1003 Klebsiella pneumoniae (KPC TEM SHV)): X (MIC of less than 1 μg/mL) | MIC (strain KP1004 Klebsiella pneumoniae (KPC-2, TEM-1, SHV-11)): X (MIC of less than 1 μg/mL) | MIC (strain KP1008 Klebsiella pneumoniae (KPC-2)): X (MIC of less than 1 μg/mL) | MIC (strain KP1014 Klebsiella pneumoniae (VIM-1, TEM, SHV)): X (MIC of less than 1 μg/mL) | MIC (strain KP1054 Klebsiella pneumoniae (VIM-1, SHV-11)): X (MIC of less than 1 μg/mL) | MIC (strain KP1059 Klebsiella pneumoniae (VIM-1, SHV-11)): Y (MIC of 1 μg/mL to 10 μg/mL) | MIC (strain KP1061 Klebsiella pneumoniae (KPC-3, SHV-11, TEM-1)): X (MIC of less than 1 μg/mL) | MIC (strain KP1064 Klebsiella pneumoniae (KPC-2, SHV-11, TEM-1)): Z (MIC of greater than 10 μg/mL) | MIC (strain KP1065 Klebsiella pneumoniae (VIM-1, SHV-11)): X (MIC of less than 1 μg/mL) | MIC (strain KP1070 Klebsiella pneumoniae (KPC-2, SHV-11, TEM-1)): X (MIC of less than 1 μg/mL) | MIC (strain KP1074 Klebsiella pneumoniae (KPC-3, SHV-11, TEM)): Z (MIC of greater than 10 μg/mL) | MIC (strain KP1081 Klebsiella pneumoniae (NDM-1, TEM-1, SHV-11, CMY-6, CTX-M-15)): Y (MIC of 1 μg/mL to 10 μg/mL) | MIC (strain KP1082 Klebsiella pneumoniae (KPC-2, SHV-1)): X (MIC of less than 1 μg/mL) | MIC (strain KP1083 Klebsiella pneumoniae (KPC-3, SHV-1, TEM-1)): X (MIC of less than 1 μg/mL) | MIC (strain KP1084 Klebsiella pneumoniae (KPC-3, SHV-11, TEM-1)): Z (MIC of greater than 10 μg/mL) | MIC (strain KP1086 Klebsiella pneumoniae (OXA-48, CTX-M-15, TEM, SHV)): Z (MIC of greater than 10 μg/mL) | MIC (strain KP1087 Klebsiella pneumoniae (KPC-2, CTX-M-15, SHV-11, TEM-1)): Y (MIC of 1 μg/mL to 10 μg/mL) | MIC (strain KP1088 Klebsiella pneumoniae (KPC-3, SHV-11, TEM-1)): X (MIC of less than 1 μg/mL) | MIC (strain KP1089 Klebsiella pneumonias (OXA-181, CTX-M-15, TEM, SHV)): X (MIC of less than 1 μg/mL) | MIC (strain KP1095 Klebsiella pneumoniae (KPC-2 TEM-1 SHV-1)): X (MIC of less than 1 μg/mL) | MIC (strain KP1096 Klebsiella pneumoniae (KPC-2 TEM-181 SHV-11)): X (MIC of less than 1 μg/mL) | MIC (strain KP1097 Klebsiella pneumonias (IMP-1)): X (MIC of less than 1 μg/mL) | MIC (strain KP1098 Klebsiella pneumoniae (IMP-26)): Y (MIC of 1 μg/mL to 10 μg/mL) | MIC (strain KP1104 Klebsiella pneumoniae (KPC TEM)): X (MIC of less than 1 μg/mL) | MIC (strain KP1105 Klebsiella pneumoniae (KPC TEM SHV)): X (MIC of less than 1 μg/mL) | MIC (strain KP1159 Klebsiella pneumoniae (SHV-1(2b); CTX-M-15; IMP-4)): Y (MIC of 1 μg/mL to 10 μg/mL) | MIC (strain KP1160 Klebsiella pneumoniae (SHV-28(2be); CTX-M-15; IMP-26)): Y (MIC of 1 μg/mL to 10 μg/mL) | MIC (strain KP1161 Klebsiella pneumoniae (NDM-1)): X (MIC of less than 1 μg/mL) | MIC (strain KP1164 Klebsiella pneumoniae (SHV-12(2be); VIM-1)): X (MIC of less than 1 μg/mL) | MIC (strain KP1165 Klebsiella pneumoniae (SHV-11(2b); CTX-M-15; VIM-27)): Z (MIC of greater than 10 μg/mL) | MIC (strain KP1166 Klebsiella pneumoniae (SHV-5(2be); VIM-26)): Y (MIC of 1 μg/mL to 10 μg/mL) | MIC (strain KP1167 Klebsiella pneumoniae (SHV-12(2be); VIM-1)): X (MIC of less than 1 μg/mL) | MIC (strain KP1169 Klebsiella pneumoniae (SHV-11(2b); VIM-1)): X (MIC of less than 1 μg/mL) | MIC (strain KP1170 Klebsiella pneumoniae (SHV-11(2b); CTX-M-15; NDM-1)): X (MIC of less than 1 μg/mL) | MIC (strain KP1172 Klebsiella pneumoniae (SHV-31(2be); DHA-1; VIM-1)): X (MIC of less than 1 μg/mL) | MIC (strain KP1173 Klebsiella pneumoniae (TEM-33(2br); CTX-M-15; IMP-1)): X (MIC of less than 1 μg/mL) | MIC (strain KP1174 Klebsiella pneumoniae (CTX-M-14; IMP-1)): X (MIC of less than 1 μg/mL) | MIC (strain KP1175 Klebsiella pneumoniae (SHV-OSBL(2b); VIM-1)): X (MIC of less than 1 μg/mL) | MIC (strain KP1177 Klebsiella pneumoniae (SHV-OSBL(2b), TEM-OSBL(2b); CTX-M-15; NDM-1)): X (MIC of less than 1 μg/mL) | MIC (strain KP1178 Klebsiella pneumoniae (SHV-OSBL(2b;) TEM-OSBL(2b); CTX-M-15; NDM-1)): X (MIC of less than 1 μg/mL) | MIC (strain KP1179 Klebsiella pneumoniae (SHV-12(2be), TEM-OSBL(2b); CTX-M-15; NDM-7)): X (MIC of less than 1 μg/mL) | MIC (strain KP1180 Klebsiella pneumoniae (SHV-OSBL(2b), TEM-OSBL(2b); CTX-M-15; DHA-1; IMP-26)): X (MIC of less than 1 μg/mL) | MIC (strain KP1181 Klebsiella pneumoniae (SHV-OSBL(2b); CTX-M-15; IMP-26)): X (MIC of less than 1 μg/mL) | MIC (strain KP1183 Klebsiella pneumoniae (SHV-OSBL(2b), TEM-OSBL(2b); CTX-M-15; NDM-1)): X (MIC of less than 1 μg/mL) | MIC (strain KP1184 Klebsiella pneumoniae (SHV-OSBL(2b); IMP-1)): X (MIC of less than 1 μg/mL) | MIC (strain KP1185 Klebsiella pneumoniae (SHV-OSBL(2b), TEM-OSBL(2b); IMP-4)): Y (MIC of 1 μg/mL to 10 μg/mL) | MIC (strain KP1186 Klebsiella pneumoniae (CTX-M-15; NDM-1)): X (MIC of less than 1 μg/mL) | MIC (strain KP1187 Klebsiella pneumoniae (SHV-55(2be), TEM-OSBL(2b); CTX-M-15; NDM-1)): X (MIC of less than 1 μg/mL) | MIC (strain KP1188 Klebsiella pneumoniae (SHV-OSBL(2b); CTX-M-15; NDM-1)): Y (MIC of 1 μg/mL to 10 μg/mL) | MIC (strain KP1189 Klebsiella pneumoniae (TEM-OSBL(2b); CTX-M-15; CTX-M-27; NDM-1)): X (MIC of less than 1 μg/mL) | MIC (strain KPM1123 Klebsiella pneumoniae (KPC-2 TEM SHV)): X (MIC of less than 1 μg/mL) | MIC (strain KPM1202 Klebsiella pneumoniae (KPC SHV TEM)): X (MIC of less than 1 μg/mL) | MIC (strain KPM1203 Klebsiella pneumoniae (KPC SHV TEM)): X (MIC of less than 1 μg/mL) | MIC (strain KPM1344 Klebsiella pneumoniae (VIM-1)): X (MIC of less than 1 μg/mL) | MIC (strain KPM1345 Klebsiella pneumoniae (VIM-1 SHV)): X (MIC of less than 1 μg/mL) | MIC (strain KPM1347 Klebsiella pneumoniae (NDM-1 SHV CTX-M-15)): X (MIC of less than 1 μg/mL) | MIC (strain KX1017 Klebsiella oxytoca (KPC-2, OXA-2, SHV-30)): X (MIC of less than 1 μg/mL) | MIC (strain KX1018 Klebsiella oxytoca (KPC-2, SHV-40, OXY-1)): X (MIC of less than 1 μg/mL) | MIC (strain KX1019 Klebsiella oxytoca (KPC-2, OXA-2)): X (MIC of less than 1 μg/mL) | MIC (strain PM1024 Proteus mirabilis (TEM-1(2b); CMY-16; VIM-1)): X (MIC of less than 1 μg/mL) | MIC (strain PM1026 Proteus mirabilis (DHA-1; IMP-26)): X (MIC of less than 1 μg/mL) | MIC (strain PM1027 Proteus mirabilis (VIM-5)): X (MIC of less than 1 μg/mL) | MIC (strain SM1023 Serratia marcescens (VIM-4)): Y (MIC of 1 μg/mL to 10 μg/mL)
